In US10398689B2, “Benzopiperidine derivative, preparation method thereof and medical use thereof” (Jiangsu Hengrui Medicine Co., Ltd., priority 2015, dated 2019):

Key:
Type in all cases: cell-based
ER (estrogen receptor) = biological target: T1, ER (estrogen receptor) (Homo sapiens, UniProt P03372); experiment: Inhibition of the binding of estrogen (E) to estrogen receptor (ER), MCF-7/ERE-luciferase reporter cells; details: MCF-7/ERE-luciferase cells, 0.1 nM estradiol, 24 hours, chemiluminescence; read-out: IC50 value of inhibition effect on the binding of E to ER
T1 construct: MCF-7/ERE-luciferase monoclonal cells were selected by transfection of MCF-7; host or cells: MCF-7/ERE-luciferase (only the ERE-luciferase reporter was transfected)
T1 sequence (P03372 1-595): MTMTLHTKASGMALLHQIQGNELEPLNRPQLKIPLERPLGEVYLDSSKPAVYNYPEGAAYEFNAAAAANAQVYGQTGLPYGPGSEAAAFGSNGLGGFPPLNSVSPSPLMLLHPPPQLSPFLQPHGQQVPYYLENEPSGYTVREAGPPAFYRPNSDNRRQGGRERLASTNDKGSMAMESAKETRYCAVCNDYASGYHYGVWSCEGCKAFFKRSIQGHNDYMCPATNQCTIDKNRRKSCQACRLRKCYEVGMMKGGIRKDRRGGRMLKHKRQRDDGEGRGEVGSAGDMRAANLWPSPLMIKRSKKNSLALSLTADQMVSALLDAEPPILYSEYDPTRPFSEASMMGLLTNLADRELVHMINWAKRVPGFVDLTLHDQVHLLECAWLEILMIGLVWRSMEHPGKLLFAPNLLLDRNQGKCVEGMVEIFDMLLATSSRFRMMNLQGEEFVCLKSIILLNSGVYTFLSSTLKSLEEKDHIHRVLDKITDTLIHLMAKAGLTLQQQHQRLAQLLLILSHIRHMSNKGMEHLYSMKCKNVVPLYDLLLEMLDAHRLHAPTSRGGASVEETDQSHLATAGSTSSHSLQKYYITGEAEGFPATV
Description: The compounds of the present invention have an inhibition effect on the binding of E (estrogen) to ER (estrogen receptor), thereby blocking the binding of a complex of E and ER complex to ERE (estrogen responsive element), and subsequently blocking the expression of downstream luciferase protein.
The inhibition effect of the compounds on the binding of E to ER in vitro was tested by the following method.
The object of this experiment was to determine the inhibition effect of the compounds on the binding of E to ER, and the in vitro activity of the compounds was evaluated according to the IC50 values.
ERE was cloned into the upstream of the luciferase gene, and MCF-7/ERE-luciferase monoclonal cells were selected by transfection of MCF-7 (Cell Bank of Chinese Academy of Sciences typical culture preservation Committee, TCHu74). MCF-7/ERE-luciferase cells were inoculated into the MEM medium (hyclone, SH30024.01B) containing 10% charcoal stripped FBS (Moregate, FBSF), 1% sodium pyruvate (Sigma, S8636), 1% nonessential amino acids (Sigma, M7145) and 500 μg/ml G418 in a 96-well plates with a density of 30,000 cells/well, and the cells were incubated under the conditions of 37° C., and 5% CO2. The drug was prepared as a 20 mM stock solution that was later diluted with 100% DMSO in 10 fold concentration gradient, and then diluted 20-fold with the medium DMEM. After incubation for 24 hours, the medium was removed, then 0.1 nM estradiol (Sigma, E2758) and 10 μl of the drug diluted with the medium were added to each well, and the control group was added with DMSO. The plate was gently shaken and incubated in a incubator at 37° C., 5% CO2. After 24 hours, the cell culture medium was discarded, Then, 50 μl of the prepared luciferase substrate (Promega, E6110) was added to each well, and the plate was placed in the dark at room temperature for 10-15 minutes, then the chemiluminescence signal value was determined.
The inhibition effect of the compounds of the present invention on the binding of E to ER was tested by the experiment described above. The values of the chemiluminescence signal vs the logarithmic concentrations of the compounds were plotted using Graphpad Prism, and the measured IC50 values are shown in Table 1.

MCF7 cells = experiment: Inhibition of the proliferation of MCF7 cells (Cell Titer-Glo); details: Homo sapiens, MCF-7 cells, 72 hours, read-out: IC50 value of inhibition effect on the proliferation of MCF7 cells
Description: The object of this experiment was to determine the inhibition effect of the compounds on the proliferation activity of MCF7 cells, and the in vitro activity of the compounds was evaluated according to the IC50 values.
MCF-7 cells (Cell Bank of Chinese Academy of Sciences typical culture preservation Committee, TChu 74) were inoculated into the MEM medium (Hyclone, SH30024.01B) containing 10% FBS (Gibco, 10099-141), 1% sodium pyruvate (Sigma, S8636), and 1% nonessential amino acids (Sigma, M7145) in a 96-well plate with a density of 40,000 cells/well, and the cells were incubated under the conditions of 37° C., and 5% CO2. The compound was prepared as a 20 mM stock solution that was later diluted to 1000× final concentration with 100% DMSO, and then diluted with 20-fold medium containing 2% FBS. After incubation for 24 hours, the medium was removed and 90 μl of the medium containing 2% FBS and 10 μl of the drug were added to each well, 10 […] of DMSO was added to the control group, and the blank group contained only 100 μl medium containing 2% FBS. The plate was gently shaken and incubated in a incubator at 37° C., 5% CO2. After 72 hours later, 50 μl of mixed Cell Titer-Glo (Promega, G7571) was added to each well. The plate was shaken until the ingredients were mixed uniformly, and placed at room temperature for 10 minutes, then the chemiluminescence signal value was determined. The inhibition effect of the compound AZD9496 at 100 nM on the proliferation of MCF-7 cells was set to 100%, the maximum inhibition rate of other compounds=(chemiluminescence signal valuenegative control−chemiluminescence signal valuecompound 100 nm)/(chemiluminescence signal valuenegative control−chemiluminescence signal valueAZD9496 100 nm)×100%, and the negative control was a well with 0.5% DMSO.
The values of the chemiluminescence signals vs the logarithmic concentrations of the compounds were plotted using Graghpad Prism to obtain the IC50 values.

ERα = biological target: T2, ERα (Homo sapiens, UniProt P03372); experiment: Degradation effect on ERα in MCF-7 cells (ERα Duoset ELISA); details: MCF7; compound at 3 μM, relative to positive control AZD-9496 at 3 μM set to 100%
T2 construct: host or cells: MCF-7
T2 sequence (P03372 1-595): T1 sequence (P03372 1-595)
Description: In order to determine the degradation effect on ER induced by the compound of present invention, the following method was used to determine the degradation effect of the compounds of the present invention on ER.
MCF-7 cell line (TChu 74, Cell Bank of Chinese Academy of Sciences typical culture preservation Committee)
ERα Duoset Kit (#DYC5715E, R&D System)
MCF-7 cells well incubated in DMEM/F-12 medium containing 10% FBS.
On the first day of the experiment, MCF-7 cells were resuspended in DMEM/F-12 medium containing 10% FBS treated by activated carbon, then inoculated into a 48-well plate with a density of 50,000 cells/well and incubated for 22-24 hours.
On the second day of the experiment, the test compound was diluted with medium and added to a 48-well plate. The ERα-capture antibody was diluted to 1 μg/ml with PBS, and added with 100 μl/well to a 96-well plate at 100 μl/well. The plate was sealed and coated overnight at room temperature.
On the third day of the experiment, the coated 96-well plate was washed twice with PBS, added with a sealing solution (1% BSA in PBS) at 110 μl/well and sealed for 1 hour at room temperature. The 48-well plate was washed once and the residual liquid was removed. Then, 60 μl of lysis buffer (6 M urea, 1 mM EDTA, 0.5% Triton X-100, 1 mM PMSF, Protease Inhibitor cocktail) was added to each well. After lysis on ice for 15 minutes, the diluent (1 mM EDTA, 0.5% TritonX-100 dissolved in PBS) was added. The cell-diluted lysate was transferred to a 96-well plate at 100 μl/well, then the plate was incubated at room temperature for 2 hours. The diluted primary antibody was added after the plate was washed 4 times with a washing liquid (PBST). After incubation for 1 hour, the 96-well plate was washed 4 times, and the second antibody was added, then the plate was incubated for 30 minutes. After the plate was washed with a washing liquid, TMB chromogenic solution was added and incubated for 15 minutes. The reaction was stopped by the addition of 1 M H2SO4, then the light absorption at a wavelength of 450 nm was read. The degradation effect of the compound AZD9496 at 3 μM was set to 100%, the Emax of other compounds=(ODnegative control−ODcompound 3 μM)/(ODnegative control−ODAZD9496 3 μM)×100%, and the negative control was a well with DMSO.

| Structure (SMILES) | IC50 (ER (estrogen receptor)) [nM] | IC50 (MCF7 cells) [nM] | Emax at 3 µM (ERα) [%] |
| --- | --- | --- | --- |
| CC(C)c1ccc(N2[C@@H](c3c(F)cc(/C=C/C(=O)O)cc3F)c3ccc(-c4cnn(C)c4)cc3C[C@@H]2C)cc1 (racemic) [Example 40, (E)-3-(3,5-Difluoro-4-((1S,3R/1R,3S)-2-(4-isopropylphenyl)-3-methyl-6-(1-methyl-1H-pyrazol-4-yl)-1,2,3,4-tetrahydroisoquinolin-1-yl)phenyl)acrylic acid] | 0.6 | 0.23 | 115 |
| CCc1ccc(N2[C@H](c3ccc(/C=C/C(=O)O)cc3)c3ccc(-c4cnn(C)c4)cc3C[C@H]2C)cc1 [Example 2, (E)-3-(4-((1R,3R)-2-(4-Ethylphenyl)-3-methyl-6-(1-methyl-1H-pyrazol-4-yl)-1,2,3,4-tetrahydroisoquinolin-1-yl)phenyl)acrylic acid] | 1.71 | 0.4 | 114 |
| CC1Cc2cc(-c3cnn(C)c3)ccc2C(c2c(F)cc(/C=C/C(=O)O)cc2F)N1c1ccc(C2CC2)cc1 [Example 4, (E)-3-(4-((1S,3R/1R,3S)-2-(4-Cyclopropylphenyl)-3-methyl-6-(1-methyl-1H-pyrazol-4-yl)-1,2,3,4-tetrahydroisoquinolin-1-yl)-3,5-difluorophenyl)acrylic acid] | 0.27 | 0.42 | 136 |
| COc1ccc(N2C(C)Cc3cc(-c4cnn(C)c4)ccc3C2c2ccc(/C=C/C(=O)O)cc2)cc1 [Example 46, (E)-3-(4-((1R,3R/1S,3S)-2-(4-Methoxyphenyl)-3-methyl-6-(1-methyl-1H-pyrazol-4-yl)-1,2,3,4-tetrahydroisoquinolin-1-yl)phenyl)acrylic acid] | 1.42 | 0.65 | 111 |
